Measurements: article PMC6269909, “Investigating the Antioxidant and Acetylcholinesterase Inhibition Activities of Gossypium herbaceam” (Molecules, 2013)
Where two headings read alike, the source gives them in different places.

Columns and labels:
[1] = DPPH radical scavenging assay; type: biochemical; settings: Table 2, mean of three replicates, read-out: IC50 for inhibition of DPPH radical formation
Description: (§1) The DPPH radical activity test was used to measure the hydrogen atom or electron donor capacity of the samples to the stable radical DPPH formed in liquid solution. Thus, it measures the capacity of the samples to scavenge free radicals in solution [17]. Proton radical scavenging is an important attribute of antioxidants. […] ABTS, a protonated radical, has characteristic absorbance at 734 nm which decreases with the scavenging of the proton radicals. […]
DPPH is a stable free radical that reacts with compounds that can donate a hydrogen atom. This method is based on the scavenging of DPPH through the addition of a radical species or an antioxidant that decolorizes the DPPH solution. The antioxidant activity is then measured by the extent of decrease in absorption at 515 nm. In brief, a 0.2 mM solution of DPPH in methanol was prepared, and 100 μL of this solution was added to 100 μL of the sample solution in methanol at varying concentrations. The solutions in the 96 well micro plates were shaken well and incubated in the dark for 30 minutes at room temperature. The absorbance was measured at 515 nm. A large decrease in the absorbance of the reaction mixture indicates substantial free radical scavenging activity of the compound. DPPH radical scavenging activity (%) = [(Abscontrol − Abscompound)]/(Abscontrol)] × 100 where Abscontrol is the absorbance of DPPH radical + methanol; Abscompound is the absorbance of DPPH radical + compound/standard.

[2] = ABTS radical scavenging assay; type: biochemical; settings: Table 2, mean of three replicates, read-out: IC50 for inhibition of ABTS radical formation
Description: as §1
The ABTS radical scavenging method was developed by Rice-Evans and Miller in 1994 and was then modified by Rice-Evants et al. in 1999. The modification is based on the activation of metmyo-globin with hydrogen peroxide in the presence of ABTS^•+ to produce a radical cation. This improved method generates a blue/green ABTS^•+ chromophore via the reaction of ABTS and potassium persulfate and is now widely used. The antioxidant activity is then measured by the decrease in absorption at 734 nm. In brief, ABTS radical cation (ABTS^•+) was produced by reacting ABTS stocking solution with […] potassium persulfate and kept in the dark at room temperature for 12–16 h before use. The samples containing the ABTS^•+ solution were diluted with methanol to obtain an absorbance of 0.700 (±0.02) at 734 nm and equilibrated at 30 °C. The ABTS^•+ solution was freshly prepared for each assay. Different concentrations of compounds (16 μL) were allowed to react with 184 μL of the ABTS^•+ solution and the absorbance was taken at 734 nm after 7 min using spectrophotometer. The ABTS^•+ scavenging capacity of the compound percentage inhibition was calculated using formula: ABTS radical scavenging activity (%) = [(Abscontrol − Abscompound)]/(Abscontrol)] × 100, where Abscontrol is the absorbance of ABTS radical + methanol; Abscompound is the absorbance of ABTS radical + compound/standard.

[3] = Lipid peroxidation assay (TBARS), egg yolk homogenates; type: biochemical; settings: Table 2; egg yolk homogenate, FeSO4; mean of three replicates; read-out: IC50 for inhibition of peroxidation of lipids, estimated as thiobarbituric acid reactive substances
Method: Lipid peroxidation involves the formation and propagation of lipid radicals with numerous deleterious effects, including destruction of membrane lipids, metabolic disorders and inflammation, and production of malondialdehyde (MDA) is a hallmark of this process. Inhibition of lipid peroxidation was assessed by amount of MDA produced. Lipids in egg yolk undergo rapid nonenzymatic peroxidation in the presence of ferrous sulphate. […] Phenolics present in plant sources have received considerable attention over the past decade because of their potential to prevent lipid peroxidation and diseases associated with it.
A modified thiobarbituric acid-reactive species (TBARS) assay was used to measure the lipid peroxide formed, using egg yolk homogenates as lipid-rich media. Adapted TBARS method was employed to measure the antioxidant capacity. Briefly, egg homogenate (100 μL of 1:25, v/v in phosphate-buffered saline (PBS) PH 7.4) and 10 μL of different concentrations of sample were added to a test tube as well as added 25 mmol/L freshly prepared FeSO4 made up to 300 μL with PBS. The homogenate was incubated at 37 °C for 15 min and then the reaction was stopped by adding 50 μL 15% w/v trichloroacetic acid (TCA) and centrifugation (3,500 rpm) for 15 min. An aliquot of 200 μL from supernatant was mixed with 100 μL thiobarbituric acid (TBA) and heated at 95 °C for 30 min.

[4] = target: T1, Acetylcholinesterase (AChE) type VI-S from electric eel (Electrophorus electricus, UniProt O42275); test: biochemical
T1 construct: purchased Sigma (St. Louis, MO, USA)
T1 sequence (O42275 24-633): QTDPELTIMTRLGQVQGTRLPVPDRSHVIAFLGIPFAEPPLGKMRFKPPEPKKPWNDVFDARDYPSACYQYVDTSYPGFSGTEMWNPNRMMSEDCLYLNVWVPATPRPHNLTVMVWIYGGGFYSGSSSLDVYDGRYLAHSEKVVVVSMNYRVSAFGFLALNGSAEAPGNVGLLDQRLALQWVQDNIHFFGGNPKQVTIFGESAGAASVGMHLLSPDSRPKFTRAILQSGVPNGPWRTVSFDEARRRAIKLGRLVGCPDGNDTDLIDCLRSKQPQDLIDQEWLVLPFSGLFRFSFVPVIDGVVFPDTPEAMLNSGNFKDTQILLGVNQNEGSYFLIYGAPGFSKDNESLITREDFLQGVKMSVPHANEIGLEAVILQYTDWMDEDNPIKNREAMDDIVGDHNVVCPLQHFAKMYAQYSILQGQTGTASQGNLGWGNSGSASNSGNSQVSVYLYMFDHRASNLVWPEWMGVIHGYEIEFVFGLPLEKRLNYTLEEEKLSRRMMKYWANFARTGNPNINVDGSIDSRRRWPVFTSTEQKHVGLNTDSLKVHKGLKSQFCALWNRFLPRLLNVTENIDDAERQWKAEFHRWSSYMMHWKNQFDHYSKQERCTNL
Description: Acetylcholinesterase (AChE) type VI-S from electric eel, 5-5′-dithiobis-[2-nitrobenzoicacid] (DTNB), 1-1-diphenyl-2-picrylhydrazyl (DPPH), 2,2'-azinobis-(3-ethylbenzothiazoline-6-sulfonic acid) (ABTS), acetylthiocholine iodide (AChI), dimethyl sulfoxide (DMSO), ferrous sulfate (FeSO4·7H2O), thiobarbituric acid (TBA), trichloroacetic acid (TCA), potassium ferricyanide were obtained from Sigma (St. Louis, MO, USA). L-3-ketothreohexuronic acid lactone (vitamin C) and huperzine A were purchased from the National Institutes for Food and Drug Control, Beijing, China. All the other reagents were of analytical grade.
Inhibition of acetyl cholinesterase activity of samples was measured by the micro-plate assay adapted. AChE inhibitory activity was measured by slightly modifying the spectrophotometric method from the literature which was initially developed by Ellman. Briefly, in this method, 100 μL of […] sodium phosphate buffer (pH = 8.0), 20 μL of DTNB, 20 μL of test solution and 2 μL of AChE solution were added using a multichannel automatic pipette into a 96-well micro plate and incubated for 15 min at 25 °C.

PC12 cells = test: tBHP exposure in PC12 cells, cell viability (MTT); type: cell-based, Rat; settings: for Protection against tBHP-induced cell death in PC12 cells (cell viability, MTT): pre-treated 100 μM for 24 h, then tBHP 200 μM for 3 h, p < 0.05
Method: tBHP caused a reduction in cell viability with an IC50 value for PC12 cells death at 200 μM. PC12 cells were an established model of nerve growth factor (NGF) - induced neurite formation. […] In the control sample, the value of cell viability was set to be 100%.
Rat pheochromocytoma cells (PC12) cells were kindly donated by Professor Dong T. X. (The Hong Kong University of Science and Technology, Hong Kong, China). PC12 cells were maintained in 75 cm culture flasks containing 20 mL of RPMI-1640 media supplemented with 1% FBS, 1% L-glutamine, 1% non-essential amino acids and 1% penicillin/streptomycin. Cells were maintained in an incubator at 37 °C with 5% CO2. Experiments and cell maintenances were performed in a laminar flow hood under sterile conditions. Cells were passaged every 4–5 days and detached from flasks using 1× trypsin EDTA. Cell counts were performed using trypan blue to stain non viable cells, which were excluded from the count. Ninety-six well plates were used for cell viability experiments. The cells were then allowed to equilibrate for 24 h before the experiment.
H2O2 is a well established pro-oxidant in PC12 cells over the concentration range used. tBHP shares some of the same properties of H2O2 but generates a more shallow neurotoxicity response over a wider concentration range than H2O2 in PC12 cells and elicits greater lipid peroxidation. […] For anti-oxidation effect, the cultures were treated with tBHP (200 μM) for 3 h. Cultures were subjected to cell viability test using the colorimetric MTT assay. Purple crystal inside the cells was dissolved by DMSO and measured by absorbance at 570 nm.

[5] = Table 2, mean of three replicates, read-out: IC50 for inhibition of AChE

Compound	IC50 [1] [µM]	IC50 [2] [µM]	IC50 [3] [µM]	IC50 [4] [µM]	IC50 [4, 5] [µM]	Protection against tBHP-induced cell death in PC12 cells (cell viability, MTT) (PC12 cells)	IC50 ([1]; listed as quercetin) [µM]	IC50 ([2]; listed as quercetin) [µM]	IC50 (PC12 cells; reduction in cell viability by tBHP, read-out: IC50 value for PC12 cells death) [µM]
O=c1c(O[C@@H]2O[C@H](CO)[C@H](O)[C@H](O)[C@H]2O)c(-c2ccc(O)c(O)c2)oc2cc(O)cc(O)c12 [Hyperoside]	11.2	113	7.47	94.6					
O=c1c(O[C@@H]2O[C@H](CO)[C@@H](O)[C@H](O)[C@H]2O)c(-c2ccc(O)c(O)c2)oc2cc(O)cc(O)c12 [Isoquercetin]	3.65	26.9	8.81	57					
COc1cc(-c2oc3cc(O[C@@H]4O[C@H](CO)[C@@H](O)[C@H](O)[C@H]4O)cc(O)c3c(=O)c2O)ccc1O [Isorhamnetin-7-O-β-D-glucopyranoside]	1.73	21.8	7.2		55.7				
O=c1c(O)c(-c2ccc(O)cc2)oc2cc(O)cc(O)c12 [Kaempferol]	5.52	41.4				could exert the anti-oxidation effect in protecting the tBHP-induced cell death			
O=c1c(O[C@@H]2O[C@H](CO)[C@@H](O)[C@H](O)[C@H]2O)c(-c2ccc(O)c(O)c2)oc2cc(O[C@@H]3O[C@H](CO)[C@@H](O)[C@H](O)[C@H]3O)cc(O)c12 [Quercetin-3,7-di-O-β-D-glucopyranosid]	5.48	50.8	33.4		67.1				
O=c1c(O)c(-c2ccc(O)c(O[C@@H]3O[C@H](CO)[C@@H](O)[C@H](O)[C@H]3O)c2)oc2cc(O)cc(O)c12 [Quercetin-3′-O-β-D-glucoside]	3.75	34.7	8.9		88.6	could exert the anti-oxidation effect in protecting the tBHP-induced cell death			
O=c1c(O)c(-c2ccc(O)c(O)c2)oc2cc(O)cc(O)c12 [Quercetin]	0.84	19.6	13.1				19.6	0.84	
O=c1c(O)c(-c2ccc(O)c(O)c2)oc2cc(OC3OC(CO)C(O)C(O)C3O)cc(O)c12 (stereo not drawn) [Quercimeritin]	3.69	24.9	6.85	52.3		could exert the anti-oxidation effect in protecting the tBHP-induced cell death			
O=C1O[C@H]([C@@H](O)CO)C(O)=C1O [Vit C, L-3-ketothreohexuronic acid lactone, reference compound]						protect the cells against oxidation significantly			
CC(C)(C)OO [tBHP, tertiary butyl hydroperoxide, reference compound]									200
